We go through 9 compounds from US5519043A, “Fluorenyl derivatives” (Scios Nova Inc., priority 1993, dated 1996).

In assay [1] the test system is reverse passive Arthus reaction (blueing by antigen and antibody). The assay is described as follows: Reverse Passive Arthus Reaction (RPA). The class given is in vivo, Male SD rats. Conditions: rat. As to the method: Male SD rats weighing between 200 and 300 g were used. Test compounds were dissolved in dimethyl sulfoxide and 1 ml/kg of this stock solution (100 mg/ml), on serial dilutions were injected intraperitoneally one hour before administration of the antigen or given orally. The animals were anesthetized inhalationally with isoflurane and then injected through the penile vein with 1 ml of a solution of 2.5 mg of Evan's blue dye and 5.0 mg of human serum albumin in 1 ml of saline. This treatment was followed immediately by intracutaneous injections of 0.075 ml of anti-human albumin diluated to contain 4.38 mg/ml of antibody at 2 sites opposite the midline back. Anesthesia was terminated and after three hours, the animals were sacrificed. The skin was removed and the blue stained areas cut out. The skin patches were soaked overnight in stoppered tubes containing 2 ml of 1N potassium hydroxide at 5° C. Then 9 ml of a mixture of five parts of a 1.2N phosphoric acid and thirteen parts of acetone were added to the tubes. The tube contents were agitated and centrifuged, and the absorbance measured at 620 nm. The data were calculated as inhibition of blueing by test compound compared to control animals receiving only antigen and antibody.

Assay [2] relates to plasma fibrinogen in arthritis model. The assay is described as follows: Adjuvant arthritis test: inhibition of adjuvant-elevated plasma fibrinogen in rats. It counts as in vivo, Male Sprague Dawley rats. The note with it: rat.
Assay [3] has as its system ear edema caused by oxazolone. As to the kind of experiment: Inhibition of Ear Edema Caused by Oxazolone. It counts as in vivo, CF-1 mice. The note with it: mouse, 24 hours. As to the method:
CF-1 mice, 25-30 g body weight, six animals per group were used. The mice were sensitized to the irritant two weeks prior to the test by dribbling 100 μL of a 3% solution of oxazolone in acetone onto the scrotum of the animal. Test compounds were administered orally at doses of 100 mg/kg and 300 mg/kg for 1 hour prior to oxazolone, intraperitoneally as follows: The test compound was dissolved in dimethyl sulfoxide and doses of 10 mg/kg, 30 mg/kg, and 100 mg/kg were injected 15 mintures prior to irritant. The irritant, 3% oxazolone in acetone, was added to the surface of the ear, 5 μL added to the upper surface and 5 μL added to the lower surface. After twenty four hours the thickness of the ear was measured to 0.01 mm by a micrometer with loose drag, positioned at the lateral-most edge of the mid-point of the pinna. Data were calculated as the inhibition of increased ear thickness compared to control animals' receiving only the irritant. In general, % inhibition of greater than 20% is statistically significant (p<0.05 or less, Student's t-test for unpaired data).

Consider `O=C(Nc1ccc(C(=O)O)cc1)OCCC1c2ccccc2-c2ccccc21` [Example 7, N-[9H-(Fluorenyl-9-ethoxycarbonyl)]amino-4-benzoic acid], for which, in assay [1], the “RPA (p.o.) 100 mg/kg inhibition” value was determined as 25%. Further, the “Plasma fibrinogen level, drug by itself” value in assay [2] (100 mg/kg p.o., n=5, without adjuvant, basal 2.44±0.08 mg/ml) amounted to 4.8 ± 0.6 mg/mL. For the same compound, the “Maximum inhibition of plasma fibrinogen” value in assay [2] (given orally, maximum achieved at 3 mg/kg) came to 50%. The “AA (i.p.) % inhibition at 100 mg/kg (inhibited plasma fibrinogen in arthritis model)” value (shortened to “AA (i.p.) % inhibition at 100 mg/kg”) in assay [2] (100 mg/kg) was found to be 63%. The “AA (p.o.) % inhibition at 100 mg/kg (inhibited plasma fibrinogen in arthritis model)” value (shortened to “AA (p.o.) % inhibition at 100 mg/kg”) in assay [2] (100 mg/kg) is recorded as 39%. The “Inhibition of increased ear thickness” value in assay [3] (i.p., 10 mg/kg) turned out to be 46%; in assay [3] (i.p., 30 mg/kg), 82%; in assay [3] (i.p., 100 mg/kg), 79%; in assay [3] (orally, dose of this value not stated (100 and 300 mg/kg in method)), 50%.
On to `Cc1ccc2c(c1)C(CCOC(=O)Nc1ccc(C(=O)O)cc1)c1cc(C)ccc1-2` [Example 8, N-[9H-(2,7-Dimethylfluorenyl-9-ethoxycarbonyl)]amino-4-benzoic acid], for which the “RPA (p.o.) 100 mg/kg inhibition” value in assay [1] is recorded as 0%. For the same compound, in assay [2] (100 mg/kg), the “AA (i.p.) % inhibition at 100 mg/kg” value is given as 69% and the “AA (p.o.) % inhibition at 100 mg/kg” value is 48%.
For `O=C(Nc1ccc(C(=O)O)cc1)OCCC1c2cc(Cl)ccc2-c2ccc(Cl)cc21` [Example 9] the same measures were 54%, 78% and 38%.
Consider `O=C(CCC1c2ccccc2-c2ccccc21)Nc1ccccc1C(=O)O` [Example 14, N-[3-(9-Fluorenyl)propionyl]anthranilic acid], for which the “Inhibition of plasma fibrinogen levels” value was found to be 22% in assay [2] (10 mg/kg), 19% in assay [2] (30 mg/kg) and 51% in assay [2] (100 mg/kg).
For the compound `O=C(Nc1ccc(C(=O)O)cc1)OCCCC1c2ccccc2-c2ccccc21` [Example 23, 4-[3-(9H-Fluoren-9-yl)propoxycarbonyl]-aminobenzoic acid], the “RPA (p.o.) 100 mg/kg inhibition” value in assay [1] is recorded as 1%.
Take `O=C(CCCC1c2ccccc2-c2ccccc21)Nc1ccc(C(=O)O)cc1` [Example 25, 4-[9H-(Fluoren-9-yl)]butyric acid-4-carboxyanilide]: the “RPA (p.o.) 100 mg/kg inhibition” value in assay [1] was found to be 0%. Besides, the “AA (p.o.) % inhibition at 100 mg/kg” value in assay [2] (100 mg/kg) is listed as 15%.
As for `O=C(Nc1ccc(C(=O)O)cc1)SCCC1c2ccccc2-c2ccccc21` [Example 26, N-[2-(9H-Fluoren-9-yl)ethylthioxycarbonyl]-4-aminobenzoic acid], in assay [2] (100 mg/kg), the “AA (i.p.) % inhibition at 100 mg/kg” value stood at 70% and the “AA (p.o.) % inhibition at 100 mg/kg” value is listed as 56%.
Take `O=C(Nc1ccc(C(=O)O)cc1)SCCC1c2cc(Cl)ccc2-c2ccc(Cl)cc21` [Example 27]: in assay [2] (100 mg/kg), the “AA (i.p.) % inhibition at 100 mg/kg” value came out at 54% and the “AA (p.o.) % inhibition at 100 mg/kg” value is given as 52%.
Consider `O=C(Nc1ccc(C(=O)O)cc1)SCCC1c2cc(Br)ccc2-c2ccc(Br)cc21` [Example 28], for which, in assay [1], the “RPA (p.o.) 100 mg/kg inhibition” value was 1%. Also, in assay [2] (100 mg/kg), the “AA (i.p.) % inhibition at 100 mg/kg” value was 72% and the “AA (p.o.) % inhibition at 100 mg/kg” value turned out to be 41%.
